Experimental data as given in patent publication US4684650A, “Antihypertensive fluorophenylindanyl imidazolidinoneethylpiperazines” (priority 1984, dated 1987).
Read-outs that look alike come from different tables or passages of the source.

How the values were obtained:
[1] = system: spontaneous hypertensive rats (SHR); experiment: Antihypertensive effect in spontaneous hypertensive rats (SHR); assay type: in vivo; settings: for change in vivo at 5 mg/kg / ED10: Rattus norvegicus, ip; for change in vivo at 5 mg/kg: 1 h
Experimental: Antihypertensive effect in spontaneous hypertensive rats (SHR)
The femoral artery of male SHR is cannulated in anaestesia for blood pressure recordings. After a stabilization period of 11/2 h after discontinuation of the anaesthesia initial blood pressure curves are recorded and the systolic (SAP)/diastolic (DAP) pressure determined (-20, -10, 0, min. p.i.) Test substance is injected i.p. and the pressure curve recorded for one hour. The change in SAP/DAP is calculated in percent at mean initial values at different times (10, 20, 30, 40, 50 and 60 minutes after injection). At least two SHR are used per dose level. The maximum change is used for estimation of the drug effect.

[2] = system: methylphenidate induced stereotypies; experiment: Methylphenidate Antagonism; assay type: in vivo, mice; settings: Mus musculus, ip, read-out: MePh antg. ED50, i.p., mice, 2 hours before methylphenidate 60 mg/kg s.c.
Experimental: The experiments were made as described by Pedersen and Christensen (1972) Acta Pharmacol. et Toxicol. 31, 488-496.--Briefly, test compounds or saline were injected i.p. 2 hours before methylphenidate, 60 mg/kg s.c. 3 pairs of mice were used for each dose level. After methylphenidate injection the mice were placed in observation cages for one hour. The cages were placed on corrugated paper, the corrugation facing upwards.

[3] = system: Quipazine-induced head shakes; experiment: Quipazine-induced head shakes; assay type: in vivo; settings: Rattus norvegicus, sc, rats, 2 hours before quipazine 5 mg/kg s.c.; read-out: Quipazine antg. (Q) ED50
Experimental: The rats were pretreated subcutaneously with test compound or saline 2 hours before injection of quipazine (5 mg/kg s.c.). The rats were then placed individually in perspex observation cages (12×25 cm), and in standard experiments the number of head shakes (involving the head and sometimes part of the body) were counted for 10 min., 30-40 min. after quipazine, where the effect was maximal. The number of head shakes in each dose group were expressed in percent of those induced in the control group, and ED50 values were calculated by log-probit analysis of results from at least 3 doses.
(§1) Each group consisted of 4-12 rats.

[4] = system: phenylephrine pressor responses; experiment: Antagonism to phenylephrine pressor responses in pithed rats; assay type: in vivo; settings: for change in vivo at […] / ED50: Rattus norvegicus, iv; for change in vivo at […]: read-out: Effects on pressor response of Phenylephrine, % eff. of […], pithed rats, […], jugular vein, read-out: Effects on pressor response of Phenylephrine, % eff. of 0.31 mg/kg; for ED50: read-out: Effects on pressor response of Phenylephrine, ED50; for Phenylephr. antg./5-HT antg. (ratio): ratio of phenylephrine ED50 to 5-HT ED50
Experimental: (§2) The rat is anaesthetized with ether, tracheotomized, artificial respired and pithed. The knitting-needle is introduced through the right orbita into the cranial cavity and passed through foramen magnum into the spinal canal as far as possible. The spinal cord is destroyed by turning the needle. After vagotomi both carotides are ligated and a catheter placed in the right one for pressure recording. The rat is adrenalectomized. […] The initial and post medication mean pressor effect is calculated, and the mean pressor effect is calculated as % of the initial value. Two to five preparations are employed for each dose level. The ED50 is determined.

5-HT pressor responses = experiment: Antagonism to 5-HT pressor responses in pithed rats; assay type: in vivo; settings: for change in vivo at 0.02 mg/kg / ED50: Rattus norvegicus, iv; for change in vivo at 0.02 mg/kg: read-out: Effects on pressor response of 5-HT, % eff. of 0.02 mg/kg; for ED50: read-out: Effects on pressor response of 5-HT, ED50, pithed rats, jugular vein
Experimental: as §2

5-HT2 receptors = biological target: T1, 5-HT2 receptors (Rattus norvegicus, UniProt P14842); experiment: 3H-spiroperidol binding to 5-HT2 receptors; settings: rat whole cortex, 0.5 nM 3H-spiroperidol, 0.3 μM sulpiride; read-out: 3H-SPI binding 5-HT2 IC50
T1 construct: Rat whole cortex was homogenized by an Ultra Turrax homogenizer; from tissue; host or cells: rat whole cerebral cortex, crude washed membranes
Experimental: ^3 H-spiroperidol binding to 5-HT2 receptors.
Rat whole cortex was homogenized by an Ultra Turrax homogenizer in 100 vol. of 50 mM Tris buffer pH 7.7. The homogenate was centrifuged at 20,000 g for 10 minutes at 4° C. The pellet was rehomogenized in another volume of buffer and centrifuged as mentioned above. The final pellet was rehomogenized in 50 mM Tris buffer pH 7.7 containing 120 mM NaCl, 5 mM KCl, 2 mM CaCl2 and 1 mM MgCl2 (ion mix) in a volume corresponding to 12.5 mg original tissue per ml.
Test drugs were dissolved in water; ^3 H-spiroperidol (NEN, 28-30 Ci/mmol) was diluted in 3 μM sulpiride, and 800 μl membrane suspension were added. Final concentration of ligand and sulpiride were 0.5 nM and 0.3 μM, respectively. The samples were incubated at 37° C. for 10 min. The samples were then filtered under vacuum through Whatman GF/B glass-fiber filters. The tubes were then rinsed with 5 ml incubation buffer, which was poured on the filters. The filters were finally washed twice with 5 ml buffer and placed in counting vials. After addition of 5 ml scintillation fluid (Lumagel) radioactivity was estimated by liquid scintillation counting. Non-specific binding was obtained by adding Mianserin (1 μM) to separate samples. Each drug was tested at least twice at 5 concentrations in triplicate. IC50-values were determined from log concentration-response curves.--The presence of sulpiride excluded binding to dopamine D-2 receptors.

[5] = system: 1-5-HTP-induced head shakes; experiment: 1-5-HTP-induced head shakes; assay type: in vivo; settings: s.c., rats, 1-5-HTP 75 mg/kg i.p. after citalopram
Experimental: The rats were pretreated subcutaneously with test compound or saline simultaneously with or 90 min before injection of citalopram (10 mg/kg s.c.).
as §1

[6] = 5 mg/kg ip, diastolic pressure (DAP), max change within one hour, read-out: Antihypertensive eff. SHR, max eff. in % of 5 mg/kg ip, DAP
[7] = 5 mg/kg ip, systolic pressure (SAP), max change within one hour, read-out: Antihypertensive eff. SHR, max eff. in % of 5 mg/kg ip, SAP
[8] = 5 mg/kg ip, diastolic pressure (DAP), max change within one hour
[9] = 5 mg/kg ip, systolic pressure (SAP), max change within one hour
[10] = read-out: Antihypertensive eff. SHR, ED10 DAP
[11] = read-out: Antihypertensive eff. SHR, ED10 SAP

T1 sequence (P14842 whole entry): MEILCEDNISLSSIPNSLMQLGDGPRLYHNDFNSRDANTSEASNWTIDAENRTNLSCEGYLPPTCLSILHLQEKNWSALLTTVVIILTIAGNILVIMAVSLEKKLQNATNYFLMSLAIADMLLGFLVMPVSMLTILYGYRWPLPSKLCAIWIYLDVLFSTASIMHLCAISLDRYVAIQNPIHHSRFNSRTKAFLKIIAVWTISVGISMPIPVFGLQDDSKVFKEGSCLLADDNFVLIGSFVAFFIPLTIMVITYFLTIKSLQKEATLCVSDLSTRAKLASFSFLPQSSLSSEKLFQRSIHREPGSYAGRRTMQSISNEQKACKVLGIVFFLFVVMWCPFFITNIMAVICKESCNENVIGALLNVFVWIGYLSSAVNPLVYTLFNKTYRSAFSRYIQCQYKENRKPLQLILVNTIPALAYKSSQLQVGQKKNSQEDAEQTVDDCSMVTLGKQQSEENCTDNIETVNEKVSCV

Row | Structure (SMILES) | change in vivo at 5 mg/kg [1, 6] [%] | change in vivo at 5 mg/kg [1, 7] [%] | ED50 [2] [µmol/kg] | ED50 [3] [µmol/kg] | change in vivo at […] [4] [%] | change in vivo at 0.02 mg/kg (5-HT pressor responses; pithed rats, jugular vein) [%] | Antihypertensive eff. SHR, max eff. in % of 5 mg/kg ip, DAP [1, 8] [%] | Antihypertensive eff. SHR, max eff. in % of 5 mg/kg ip, SAP [1, 9] [%] | IC50 (5-HT2 receptors) [nM] | ED50 [4] [µmol/kg] | Phenylephr. antg./5-HT antg. (ratio) ([4]; pithed rats) | Effects on pressor response of 5-HT, % eff. of 0.02 mg/kg (5-HT pressor responses; pithed rats, jugular vein) [%] | 1-5-HTP-antg. ED50 [5] [µmol/kg] | other results
1 | O=C1CCCN1CCN1CCN([C@@H]2C[C@@H](c3ccc(F)cc3)c3ccc(Cl)cc32)CC1 (relative stereo) [compound 21] | -14 | -11 | 11 | 0.079 | 3 | -83 | – | – | – | – | – | – | – | –
2 | O=C1OCCN1CCN1CCN([C@@H]2C[C@@H](c3ccc(F)cc3)c3ccc(Cl)cc32)CC1 (relative stereo) [compound 22] | -21 | -17 | 2.8 | 0.12 | -5 | -77 | – | – | – | – | – | – | – | –
3 | Fc1ccc([C@@H]2C[C@@H](N3CCN(CCN4CCNC4=S)CC3)c3cc(Cl)ccc32)cc1 (relative stereo) [compound 28] | -10 | -6 | 4.5 | 0.017 | -22 | -93 | – | – | – | – | – | – | – | –
4 | Fc1ccc([C@@H]2C[C@@H](N3CCN(CCN4CCCC4=S)CC3)c3cc(Cl)ccc32)cc1 (relative stereo) [compound 29, (±)Trans-1-[3-(4-fluorophenyl)-6-chlorindan-1-yl]-4-[2-(2-pyrrolidinthion-1-yl)ethyl]piperazine] | -4 | -5 | – | < 0.17 | 8 | -88 | – | – | – | – | – | – | – | –
5 | O=C1NCCN1CCN1CCN([C@@H]2C[C@@H](c3ccc(F)cc3)c3ccccc32)CC1 (single isomer, unassigned) [+1, (+)trans-1-[3-(4-fluorophenyl]indan-1-yl]-4-[2-(2-imidazolidinon-1-yl)ethyl]piperazine] | – | – | > 97 | – | – | – | -47 | -33 | 6 | 3.21 | 357 | -81 | 1.5 | ED10 [1, 10]: 1.2 µmol/kg; ED10 [1, 11]: 1.7 µmol/kg; peripheral or central action ([1]; in words): mainly possess periferal action; ED50 (5-HT pressor responses): 0.009 µmol/kg
6 | O=C1NCCN1CCN1CCN([C@@H]2C[C@@H](c3ccc(F)cc3)c3ccc(F)cc32)CC1 (single isomer, unassigned) [+2, (+)Trans-1-[3-(4-fluorophenyl)-6-fluoroindan-1-yl]-4-[2-(2-imidazolidinon-1-yl)ethyl]piperazine] | – | – | > 61 | – | – | – | -40 | -31 | 4.3 | 1.43 | 143 | – | 0.10 | ED10 [1, 10]: 0.8 µmol/kg; ED10 [1, 11]: 1.6 µmol/kg; Effects on pressor response of 5-HT, ED50 (5-HT pressor responses; pithed rats, jugular vein): 0.010 µmol/kg
7 | CN1CCN(CCN2CCN([C@@H]3C[C@@H](c4ccc(F)cc4)c4ccc(F)cc43)CC2)C1=O (single isomer, unassigned) [+3, (+)Trans-1-[3-(4-fluorophenyl)-6-fluoroindan-1-yl]-4-[2-(3-methyl-2-imidazolidinon-1-yl)ethyl]piperazine] | – | – | > 91 | – | – | – | – | – | 1.1 | 2.25 | 563 | -89 | 0.023 | change in vivo at 5 mg/kg ([1]; read-out: Antihypertensive eff. SHR, max eff. in % of 5 mg/kg ip, DAP, 5 mg/kg ip, diastolic pressure (DAP), max change within one hour): -52%; change in vivo at 5 mg/kg ([1]; read-out: Antihypertensive eff. SHR, max eff. in % of 5 mg/kg ip, SAP, 5 mg/kg ip, systolic pressure (SAP), max change within one hour): -38%; ED50 (5-HT pressor responses): 0.004 µmol/kg
8 | O=C1NCCN1CCN1CCN([C@@H]2C[C@@H](c3ccc(F)cc3)c3ccc(Cl)cc32)CC1 (single isomer, unassigned) [+20, Trans-1-[3-(4-fluorophenyl)-6-chloroindan-1-yl]-4-[2-(2-imidazolidinon-1-yl)ethyl]piperazine, L(+)tartrate] | – | – | 49 | 0.028 | – | – | -45 | -29 | – | – | – | -92 | – | Effects on pressor response of Phenylephrine, % eff. of […] ([4]; pithed rats, […], jugular vein): -34%
